Measurements: a melting point compilation (Tetko et al.; mined from patent text by program, amines drawn as free bases though some values may be those of a salt)

| Compound | melting point |
| --- | --- |
| CS(=O)(=O)c1ccc(-c2nc(C(F)(F)F)nc(Cl)c2-c2ccccc2)cc1 | 156 to 159 °C |
| CCOc1nc2c(C(=O)OC)sc(C)c2[nH]1 | 209 to 210 °C |
| COc1ccc2c3c1OC1C(=O)C(C)(C)C(C)C4C(C2)N(C)CCC314 (centres undefined) | 246 to 248 °C |
| COc1ccc(N2CCCn3c2nc2c(Cl)ccc(C(O)(C4CC4)C4CC4)c23)c(C)n1 | 208 to 210 °C |
| O=C(O)c1ncn(C(c2ccccc2)c2ccccc2)c1C(=O)O | 194 °C |
| CC(=O)OCc1nc([N+](=O)[O-])c(C#N)n1C | 92 to 93 °C |
| COC(=O)CCC(=O)c1ccc(CCNC(C)=O)cc1 | 120 °C |
| COC(=O)c1cc(-c2ccc3c(c2)c2cc(-c4ccc(Cl)cc4Cl)c(=O)n(C)c2n3C)on1 | 280 to 281 °C |
| O=C1CN(c2ccccc2)C(=O)N1C(=O)c1cccc(Oc2ccccc2)c1 | 157 to 158 °C |
| Cn1c(=O)c2cnc(N)nc2n(-c2ccccc2)c1=O | > 300 °C |
| O=C(Cl)c1cnoc1-c1ccc(Cl)cc1Cl | 46 to 50 °C |
| COC(=O)C(O)Cc1ccc(OCCN(C)c2nc3ccccc3o2)cc1 (centres undefined) | 100 to 112 °C |
| NS(=O)(=O)c1cc2cc(P(=O)(O)O)c(=O)[nH]c2cc1C(F)(F)F | 240 to 244 °C |
| CC(C)(C)OC(=O)n1cccc1-c1ccc2c(c1)C(C)(C)C(=O)N2 | 168 to 170 °C |
| CCn1cc(C(C)=O)c(=O)c2ccc(-c3ccncc3)cc21 | 231 to 233 °C |
| Nc1ncnn1C(=S)NCCCCCO | 108 to 109 °C |
| COc1cccc(NC(=O)c2ccccc2[N+](=O)[O-])c1 | 156 to 158 °C |
| CC(=O)NC[C@H]1CN(c2ccc(N3CCC4(CC3)CS4)c(F)c2)C(=O)O1 | 152 to 154 °C |
| Cc1ccc(NC(=O)C=Cc2ccccc2)cc1NC(=O)C=Cc1ccccc1 | 217 to 219 °C |
| Nc1c(Br)cc(C2=NNC(=O)CC2)cc1Br | 212 to 214 °C |
| O=C(OCCN1C(=O)C=C(c2ccccc2)C1=O)c1cc([N+](=O)[O-])cc([N+](=O)[O-])c1 | 179 to 181 °C |
| OC(Cc1nc[nH]n1)(Cc1nc[nH]n1)c1ccc(Cl)cc1Cl | 182 to 185 °C |
| CN1CCN(c2ccccc2CC2CCN(c3ccccc3)C2=O)CC1 (centres undefined) | 104 to 106 °C |
| COc1cc(OC)nc(Oc2cccc(Cl)c2C(=O)NS(=O)(=O)C(C)C)n1 | 150 to 152 °C |
| CC(N)Cc1ccc(OCC(=O)NCCc2ccc(O)cc2)cc1 (centres undefined) | 160 to 163 °C |

| Compound | melting point |
| --- | --- |
| Nc1nc(-c2ccnc(-c3ccc(N4CCOCC4)cc3)c2)c(-c2ccccn2)s1 | 276 °C |
| CCNC(=O)C1=C(C(=O)Nc2cc(OC3CCCC3)c(Cl)cc2F)CCCC1 | 187 to 189 °C |
| CCC(CC)c1ccc(C(F)(F)F)c2[nH]c(=O)n(C)c12 | 205 to 206 °C |
| CCc1cc(C(=O)c2ccccc2Cl)c(-n2c(CNC(=O)c3cc4ccccc4n3CC(=O)O)nnc2C(F)(F)F)s1 | 200 to 203 °C |
| Cn1c([N+](=O)[O-])cnc1C1=NO[C@@H]2CCCCCCCCCC[C@@H]12 (relative stereo) | 121 to 122 °C |
| COc1ccc(-n2nc(Sc3ccc(C(C)C)cc3)c(C)c(C#N)c2=O)cc1 | 141 to 144 °C |
| COc1cc2c(cc1OC)C(c1cc(N)ccc1Cl)=NN=C(C)C2 | 188 to 190 °C |
| COC(=O)C1(c2ccc(OCCNC(=O)C3Cc4ccccc4N3S(=O)(=O)c3ccc(-c4cc(C(F)(F)F)ccc4Cl)cc3)cc2)CC1 (centres undefined) | 64 to 72 °C |
| CC(=O)OCC(=O)C1(OC(=O)c2ccccc2)CCC2C3CC(C)C4=CC(=O)C=CC4(C)C3C(O)CC21C (centres undefined) | 258 °C |
| CCOc1ccc2nc(Cl)c(C=O)cc2c1 | 163 to 164 °C |
| CCNC(=O)c1ccccc1-c1ccccc1 | 77 to 79 °C |
| Cc1ccnc(-n2ccnc2S(=O)Cc2ccccc2N(C)C)c1 (centres undefined) | 127 to 129 °C |
| COc1ccc2ccc(OC)c(C=O)c2c1 | 94 °C |
| CC1CCN(c2cc(C(C)(C)C)on2)C1=O (centres undefined) | 89 to 90 °C |
| CC1(C)CCC(C)(C)c2cc3cc(-c4cc(C(=O)O)cs4)ccc3cc21 | 223 to 225 °C |
| Nc1ccc2[nH]nc(Nc3nc(-c4ccccc4C(F)(F)F)nc4ccccc34)c2c1 | 221 to 223 °C |
| O=[N+]([O-])c1ccc(Oc2cccc3cccnc23)c(Cl)c1 | 113 to 115 °C |
| CCC(O)(CC)[C@H](C[C@H](O)[C@H](CC1CCCCC1)NC(=O)[C@H](Cc1cscn1)NC(=O)OC(C)(C)C)C(=O)NC | 165 to 168 °C |
| CCOC(=O)c1cn(-c2nc(F)cs2)c2nc(N3CCC(NC(=O)OC(C)(C)C)C3)ccc2c1=O (centres undefined) | 233 to 234 °C |
| Cc1nn(-c2cc(O)c(Cl)cc2F)c(C)c1C | 158 to 160 °C |
| CCOC(=O)C(Cc1ccc(O)cc1)Oc1ccc(F)cc1 (centres undefined) | 80 to 81 °C |
| COc1ccc(C(c2ccc(OC)cc2)C2CN(C)CCC2=O)cc1 (centres undefined) | 104 to 106 °C |
| COc1cccc([C@@H](c2ccc(C3CN(CCC(=O)O)C3)cc2)N2C[C@@H](C)N(Cc3ccccc3)C[C@@H]2C)c1 | 93 to 96 °C |
| COc1cc2c3c(cccc3c1CNC(C)=O)C(=O)N(O)C2=O | 237 to 239 °C |
